Results on 19 compounds are retold here after patent US20250122183A1 (Pfizer Inc., priority 2023, published 2025).

As usually defined, the Ki is the equilibrium dissociation constant of an inhibitor or competing ligand from its target.

Assay [1] addresses KAT7+JADE1+EAF6+ING5 4 protein complex (Homo sapiens (Human), UniProt O95251). Description: KAT7 JADE1 assay (SAMDI-MS acetylation of H3 1-21 peptide). It counts as biochemical. Particulars: Morrison equation fit; replicate number in parentheses; read-out: KAT7 JADE1 Ki (nM) (replicate number).
Assay [2] has as its target KAT6A Full length enzyme (Homo sapiens (Human), UniProt Q92794). Description: KAT6A assay (SAMDI-MS acetylation of H3 1-21 peptide). It counts as biochemical. As to conditions: Morrison equation fit; replicate number in parentheses; read-out: KAT6A Ki (nM) (replicate number).

Sequence of KAT6A Full length enzyme (Q92794 other isoform, or with tags, fused parts or gaps): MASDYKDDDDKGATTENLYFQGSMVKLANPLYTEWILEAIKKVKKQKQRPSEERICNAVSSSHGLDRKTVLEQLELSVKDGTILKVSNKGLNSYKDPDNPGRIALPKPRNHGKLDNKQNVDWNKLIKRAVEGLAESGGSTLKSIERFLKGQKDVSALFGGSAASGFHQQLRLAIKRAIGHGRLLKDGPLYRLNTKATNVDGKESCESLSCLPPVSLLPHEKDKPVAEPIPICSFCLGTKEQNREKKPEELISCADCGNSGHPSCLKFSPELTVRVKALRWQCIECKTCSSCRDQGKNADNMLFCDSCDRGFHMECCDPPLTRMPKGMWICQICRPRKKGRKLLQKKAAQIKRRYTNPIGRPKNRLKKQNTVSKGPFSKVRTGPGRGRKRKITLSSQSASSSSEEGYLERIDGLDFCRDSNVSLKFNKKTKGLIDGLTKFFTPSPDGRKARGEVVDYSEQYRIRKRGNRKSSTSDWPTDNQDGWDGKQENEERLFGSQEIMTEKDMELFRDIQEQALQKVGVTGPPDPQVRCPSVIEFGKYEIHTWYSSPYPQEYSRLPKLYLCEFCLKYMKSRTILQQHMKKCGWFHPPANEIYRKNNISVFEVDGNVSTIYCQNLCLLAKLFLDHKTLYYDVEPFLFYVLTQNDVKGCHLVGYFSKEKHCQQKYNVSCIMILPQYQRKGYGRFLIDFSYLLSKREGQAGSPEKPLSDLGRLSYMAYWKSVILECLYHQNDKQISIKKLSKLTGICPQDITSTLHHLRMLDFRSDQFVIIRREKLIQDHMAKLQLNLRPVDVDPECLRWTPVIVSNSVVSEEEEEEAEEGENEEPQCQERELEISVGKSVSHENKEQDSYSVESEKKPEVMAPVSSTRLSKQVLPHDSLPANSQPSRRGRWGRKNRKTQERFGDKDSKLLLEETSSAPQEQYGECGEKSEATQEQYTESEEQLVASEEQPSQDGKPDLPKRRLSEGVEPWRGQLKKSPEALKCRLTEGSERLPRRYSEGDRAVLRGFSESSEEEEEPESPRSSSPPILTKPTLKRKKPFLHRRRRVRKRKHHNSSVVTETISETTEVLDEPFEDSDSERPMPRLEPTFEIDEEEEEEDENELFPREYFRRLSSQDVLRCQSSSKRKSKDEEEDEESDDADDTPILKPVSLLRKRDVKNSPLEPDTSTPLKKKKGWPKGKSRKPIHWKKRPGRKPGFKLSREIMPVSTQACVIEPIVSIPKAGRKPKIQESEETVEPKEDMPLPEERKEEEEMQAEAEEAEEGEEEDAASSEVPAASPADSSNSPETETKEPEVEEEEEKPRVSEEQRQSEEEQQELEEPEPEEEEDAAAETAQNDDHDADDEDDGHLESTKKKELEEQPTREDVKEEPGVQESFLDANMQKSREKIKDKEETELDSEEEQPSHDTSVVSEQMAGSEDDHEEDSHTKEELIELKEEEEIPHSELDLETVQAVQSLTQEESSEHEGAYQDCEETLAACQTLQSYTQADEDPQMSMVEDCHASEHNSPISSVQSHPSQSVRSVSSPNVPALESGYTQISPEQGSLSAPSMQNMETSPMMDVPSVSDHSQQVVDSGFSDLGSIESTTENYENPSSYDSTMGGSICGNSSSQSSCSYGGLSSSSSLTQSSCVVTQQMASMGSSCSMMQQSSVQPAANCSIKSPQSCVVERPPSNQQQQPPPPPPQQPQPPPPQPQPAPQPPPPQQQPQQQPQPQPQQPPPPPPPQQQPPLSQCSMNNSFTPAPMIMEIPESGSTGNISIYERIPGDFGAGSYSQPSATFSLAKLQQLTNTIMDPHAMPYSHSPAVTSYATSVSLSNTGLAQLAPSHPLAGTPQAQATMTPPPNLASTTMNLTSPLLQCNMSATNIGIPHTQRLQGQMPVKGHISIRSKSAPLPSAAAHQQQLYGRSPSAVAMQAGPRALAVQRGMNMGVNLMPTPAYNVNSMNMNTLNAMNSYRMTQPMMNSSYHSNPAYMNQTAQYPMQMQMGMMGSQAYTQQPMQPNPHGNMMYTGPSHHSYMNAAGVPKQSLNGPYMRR

Take `COc1cc2c(NS(=O)(=O)c3c(OC)cc(C4CN(C5CCOC5)C4)cc3OC)noc2cc1Nc1cc(C2CC2)n[nH]1` (racemic) [Example 187, N-{6-[(3-cyclopropyl-1H-pyrazol-5-yl)amino]-5-methoxy-1,2-benzoxazol-3-yl]-2,6-dimethoxy-4-[1-(oxolan-3-yl)azetidin-3-yl]benzene-1-sulfonamide]: the figures for the Ki in assay [1] and in assay [2] were 13.1 nM and 2.2 nM, respectively.
Regarding `COc1cc2c(NS(=O)(=O)c3c(OC)cc(C4CCCCO4)cc3OC)noc2cc1Nc1cc(C2CC2)n[nH]1` (single isomer, unassigned) [Example 142, N-{6-[(3-cyclopropyl-1 H-pyrazol-5-yl)amino]-5-methoxy-1,2-benzoxazol-3-yl}-2,6-dimethoxy-4-(oxan-2-yl)benzene-1-sulfonamide], the Ki was 6.7 nM in assay [1] and 0.7 nM in assay [2].
For the compound `COc1cc2c(NS(=O)(=O)c3c(OC)cc(C4CCN(C)C4)cc3OC)noc2cc1Nc1cc(C2CC2)n[nH]1` (single isomer, unassigned) [Example 147, N-{6-[(3-cyclopropyl-1 H-pyrazol-5-yl)amino]-5-methoxy-1,2-benzoxazol-3-yl}-2,6-dimethoxy-4-(1-methylpyrrolidin-3-yl)benzene-1-sulfonamide], the Ki in assay [1] amounted to 12.1 nM; in assay [2] it was 1.6 nM.
On the same counts, the results for `CCN1CCOC(c2cc(OC)c(S(=O)(=O)Nc3noc4cc(Nc5cc(C6CC6)n[nH]5)c(OC)cc34)c(OC)c2)C1` (single isomer, unassigned) [Example 156, N-{6-[(3-cyclopropyl-1 H-pyrazol-5-yl)amino]-5-methoxy-1,2-benzoxazol-3-yl}-4-(4-ethylmorpholin-2-yl)-2,6-dimethoxybenzene-1-sulfonamide] are 4 nM and 0.8 nM.
For `CCN1CCOC(c2cc(OC)c(S(=O)(=O)Nc3noc4cc(Nc5cc(C6CC6)n[nH]5)c(OC)cc34)c(OC)c2)C1` (single isomer, unassigned) [Example 157, N-{6-[(3-cyclopropyl-1 H-pyrazol-5-yl)amino]-5-methoxy-1,2-benzoxazol-3-yl}-4-(4-ethylmorpholin-2-yl)-2,6-dimethoxybenzene-1-sulfonamide], the Ki came out at 11.6 nM in assay [1] and 2.5 nM in assay [2].
For `COc1cc2c(NS(=O)(=O)c3c(OC)cc(C4CCCN([C@@H]5CCOC5)C4)cc3OC)noc2cc1Nc1cc(C2CC2)n[nH]1` (single isomer, unassigned) [Example 158], the Ki in assay [1] worked out at 8.7 nM; in assay [2] it was 1.2 nM.
On the same counts, the results for `COc1cc2c(NS(=O)(=O)c3c(OC)cc(C4CCCN([C@@H]5CCOC5)C4)cc3OC)noc2cc1Nc1cc(C2CC2)n[nH]1` (single isomer, unassigned) [Example 159] are 7 nM and 1.1 nM.
Take `COc1cc2c(NS(=O)(=O)c3c(OC)cc(C4CCN([C@@H]5CCOC5)C4)cc3OC)noc2cc1Nc1cc(C2CC2)n[nH]1` (single isomer, unassigned) [Example 160]: the Ki was found to be 6.9 nM in assay [1] and 1 nM in assay [2].
In the case of `COc1cc2c(NS(=O)(=O)c3c(OC)cc(C4CCN([C@@H]5CCOC5)C4)cc3OC)noc2cc1Nc1cc(C2CC2)n[nH]1` (single isomer, unassigned) [Example 161], the Ki in assay [1] stood at 5.5 nM; in assay [2], 1.2 nM.
On the same counts, the results for `COc1cc2c(NS(=O)(=O)c3c(OC)cc(C4CCN([C@H]5CCOC5)C4)cc3OC)noc2cc1Nc1cc(C2CC2)n[nH]1` (single isomer, unassigned) [Example 162] are 8.9 nM and 1.2 nM.
For `COc1cc2c(NS(=O)(=O)c3c(OC)cc(C4CCN([C@H]5CCOC5)C4)cc3OC)noc2cc1Nc1cc(C2CC2)n[nH]1` (single isomer, unassigned) [Example 163], the Ki is 8.2 nM in assay [1] and 1.4 nM in assay [2].
As to `COc1cc2c(NS(=O)(=O)c3c(OC)cc(C4CCCN4CC(F)F)cc3OC)noc2cc1Nc1cc(C2CC2)n[nH]1` (single isomer, unassigned) [Example 165, N-{6-[(3-cyclopropyl-1H-pyrazol-5-yl)amino]-5-methoxy-1,2-benzoxazol-3-yl}-4-[1-(2,2-difluoroethyl)pyrrolidin-2-yl]-2,6-dimethoxybenzene-1-sulfonamide], the Ki was found to be 5 nM in assay [1] and 1.4 nM in assay [2].
As to `COc1cc2c(NS(=O)(=O)c3c(OC)cc(C4CCCN4CC(F)F)cc3OC)noc2cc1Nc1cc(C2CC2)n[nH]1` (single isomer, unassigned) [Example 166, N-{6-[(3-cyclopropyl-1 H-pyrazol-5-yl)amino]-5-methoxy-1,2-benzoxazol-3-yl}-4-[1-(2,2-difluoroethyl)pyrrolidin-2-yl]-2,6-dimethoxybenzene-1-sulfonamide], the values for the Ki in assay [1] and in assay [2] were 8.5 nM and 1.6 nM, respectively.
`COc1cc2c(NS(=O)(=O)c3c(OC)cc(C4CCCN(CC(F)F)C4)cc3OC)noc2cc1Nc1cc(C2CC2)n[nH]1` (single isomer, unassigned) [Example 167, N-{6-[(3-cyclopropyl-1 H-pyrazol-5-yl)amino]-5-methoxy-1,2-benzoxazol-3-yl}-4-[1-(2,2-difluoroethyl)piperidin-3-yl]-2,6-dimethoxybenzene-1-sulfonamide]: the Ki in assay [1] is 4 nM; in assay [2] it was 0.9 nM.
Take `COc1cc2c(NS(=O)(=O)c3c(OC)cc(C4CCCN(CC(F)F)C4)cc3OC)noc2cc1Nc1cc(C2CC2)n[nH]1` (single isomer, unassigned) [Example 168, N-{6-[(3-cyclopropyl-1 H-pyrazol-5-yl)amino]-5-methoxy-1,2-benzoxazol-3-yl}-4-[1-(2,2-difluoroethyl)piperidin-3-yl]-2,6-dimethoxybenzene-1-sulfonamide]: the Ki turned out to be 2.7 nM in assay [1] and 0.8 nM in assay [2].
As to `COc1cc2c(NS(=O)(=O)c3c(OC)cc(C4CCCN(CC(F)(F)F)C4)cc3OC)noc2cc1Nc1cc(C2CC2)n[nH]1` (single isomer, unassigned) [Example 169, N-{6-[(3-cyclopropyl-1 H-pyrazol-5-yl)amino]-5-methoxy-1,2-benzoxazol-3-yl}-2,6-dimethoxy-4-[1-(2,2,2-trifluoroethyl)piperidin-3-yl]benzene-1-sulfonamide], the Ki in assay [2] was found to be 0.5 nM.
Turning to `COc1cc2c(NS(=O)(=O)c3c(OC)cc(C4CCCN(CC(F)(F)F)C4)cc3OC)noc2cc1Nc1cc(C2CC2)n[nH]1` (single isomer, unassigned) [Example 170, N-{6-[(3-cyclopropyl-1 H-pyrazol-5-yl)amino]-5-methoxy-1,2-benzoxazol-3-yl}-2,6-dimethoxy-4-[1-(2,2,2-trifluoroethyl)piperidin-3-yl]benzene-1-sulfonamide], the Ki in assay [2] came to 0.4 nM.
As for `COc1cc2c(NS(=O)(=O)c3c(OC)cc(C4CCCCN4C)cc3OC)noc2cc1Nc1cc(C2CC2)n[nH]1` (single isomer, unassigned) [Example 171, N-{6-[(3-cyclopropyl-1 H-pyrazol-5-yl)amino]-5-methoxy-1,2-benzoxazol-3-yl}-2,6-dimethoxy-4-(1-methylpiperidin-2-yl)benzene-1-sulfonamide], the Ki stood at 8.4 nM in assay [1] and 2.1 nM in assay [2].
With `COc1cc2c(NS(=O)(=O)c3c(OC)cccc3OC)noc2cc1Nc1cc(C2CC2)nn1C` [Example 48, N-{6-[(3-cyclopropyl-1-methyl-1H-pyrazol-5-yl)amino]-5-methoxy-1,2-benzoxazol-3-yl}-2,6-dimethoxybenzene-1-sulfonamide], the Ki in assay [1] was more than 12500 nM.
